The results in this text go back to ChEMBL document CHEMBL1201862, “PubChem BioAssay data set” (2004).

Activity calls are given as the source filed them.

Assay [1] is described as follows: viability of uninfected HEp-2 cells – cell-based, HTS, cytotoxicity control for RSV inhibitor project, dose response (AID 2410). Format: functional. The conditions noted are these: human respiratory syncytial virus.
The next assay deals with Prothrombin (Homo sapiens, UniProt P00734). Briefly: Thrombin 1536 HTS Dose Response Confirmation. [Related pubchem assays: 1046 (Thrombin 1536 HTS; hits were confirmed in this assay)]. Format: functional.
Assay [2] deals with T1, Probable nicotinate-nucleotide adenylyltransferase (Staphylococcus aureus (strain N315), UniProt P65502). Format: functional, Staphylococcus aureus subsp. aureus N315.
For assay [3], the target named is T1, Probable nicotinate-nucleotide adenylyltransferase. In kind it is functional, Staphylococcus aureus subsp. aureus N315. The conditions noted are these: read-out: IC50_Mean.
Assay [4] is described as follows: luciferase reporter signal suppression in cells – H4 neuroglioma cells, luminescence, dose response (AID 1990). In kind it is functional, cell-based.
A short description of assay [5]: Luminescence Cell-Based Dose Response HTS to Identify Inhibitors of 5'UTR Stem-Loop Driven Prion Protein mRNA Translation in H4 Neuroglioblastoma Cells. [Related pubchem assays: 1827 (Project Summary), 1813 (Primary HTS)]. Format: functional.
The nature of assay [6]: alpha-synuclein stem-loop luciferase translation blockers – H4 neuroglioma cells, luminescence, confirmation (AID 1988). In kind it is functional, cell-based.
For the next assay, the system named is HEK293. Briefly: EBV LMP1 TES2 canonical NF-kB signalling blockers – cell-based, HEK293, luciferase, cherry-pick, dose response (AID 588343). The conditions noted are these: Homo sapiens. Format: functional.
Assay [7] is described as follows: blockers of bursicon-stimulated LGR2 cAMP reporter – cell-based, HEK293, CRE-luciferase reporter, cherry pick, set 2, dose response (AID 743343).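 Also: transfected cells were stimulated with diluted bursicon conditioned medium after compound addition.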 In kind it is functional.
Assay [8] can be described thus: blockade of melanocortin 4 receptor signaling – cell-based, plate reader, cherry pick, counter-screen for LGR2 antagonist project, dose response (AID 743444).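 Also: transfected HEK 293 cells stimulated with alpha-MSH peptide; potency of inhibitors of the alpha-MSH evoked signal.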 In kind it is functional. (A counterscreen serves to expose hits that act by an unwanted route or on another target.)
The nature of assay [9]: viability loss in HEK293 cells – cell-based, plate reader, cherry-picked samples, cytotoxicity control, dose response (AID 743446). In kind it is functional.
The target in assay [10] is Glucose-6-phosphate 1-dehydrogenase (Homo sapiens, UniProt P11413). In words: inhibition of Homo sapiens G6PD, dose series – biochemical, fluorescence, selectivity assay for P. falciparum G6PD inhibitor project, dose response (AID 504792). In kind it is functional.
The target in assay [11] is T2, Replicative DNA helicase DnaB (Mycobacterium tuberculosis, UniProt P9WMR3).
T2 sequence (P9WMR3 whole entry): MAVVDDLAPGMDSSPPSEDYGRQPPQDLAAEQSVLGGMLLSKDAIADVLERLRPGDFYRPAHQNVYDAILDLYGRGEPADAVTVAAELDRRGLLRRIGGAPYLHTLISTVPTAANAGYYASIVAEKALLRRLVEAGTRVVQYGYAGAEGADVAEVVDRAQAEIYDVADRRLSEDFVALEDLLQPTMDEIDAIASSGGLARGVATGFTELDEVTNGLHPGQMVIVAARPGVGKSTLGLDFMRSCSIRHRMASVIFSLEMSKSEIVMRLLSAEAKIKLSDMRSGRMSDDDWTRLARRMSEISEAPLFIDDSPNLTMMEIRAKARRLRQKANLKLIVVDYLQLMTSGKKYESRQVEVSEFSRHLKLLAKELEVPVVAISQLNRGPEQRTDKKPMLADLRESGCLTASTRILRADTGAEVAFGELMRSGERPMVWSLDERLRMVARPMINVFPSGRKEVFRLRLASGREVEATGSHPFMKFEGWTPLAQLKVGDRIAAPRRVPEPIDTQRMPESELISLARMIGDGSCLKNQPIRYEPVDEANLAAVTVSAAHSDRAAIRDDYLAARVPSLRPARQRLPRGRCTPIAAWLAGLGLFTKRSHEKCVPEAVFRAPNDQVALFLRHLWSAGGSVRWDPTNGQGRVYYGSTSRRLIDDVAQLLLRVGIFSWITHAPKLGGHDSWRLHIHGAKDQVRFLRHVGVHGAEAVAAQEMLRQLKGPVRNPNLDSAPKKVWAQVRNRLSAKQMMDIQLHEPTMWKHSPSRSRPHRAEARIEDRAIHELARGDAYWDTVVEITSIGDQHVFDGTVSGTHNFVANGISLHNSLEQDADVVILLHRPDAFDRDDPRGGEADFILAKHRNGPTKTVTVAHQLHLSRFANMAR
Briefly: DnaB intein splicing inhibitors, dose response, biochemical, cell-free fluorescence (AID 449749). Format: functional.

In assay [12] the target is T3, Apoptotic protease-activating factor 1 (Homo sapiens, UniProt O14727).
T3 sequence (O14727 whole entry): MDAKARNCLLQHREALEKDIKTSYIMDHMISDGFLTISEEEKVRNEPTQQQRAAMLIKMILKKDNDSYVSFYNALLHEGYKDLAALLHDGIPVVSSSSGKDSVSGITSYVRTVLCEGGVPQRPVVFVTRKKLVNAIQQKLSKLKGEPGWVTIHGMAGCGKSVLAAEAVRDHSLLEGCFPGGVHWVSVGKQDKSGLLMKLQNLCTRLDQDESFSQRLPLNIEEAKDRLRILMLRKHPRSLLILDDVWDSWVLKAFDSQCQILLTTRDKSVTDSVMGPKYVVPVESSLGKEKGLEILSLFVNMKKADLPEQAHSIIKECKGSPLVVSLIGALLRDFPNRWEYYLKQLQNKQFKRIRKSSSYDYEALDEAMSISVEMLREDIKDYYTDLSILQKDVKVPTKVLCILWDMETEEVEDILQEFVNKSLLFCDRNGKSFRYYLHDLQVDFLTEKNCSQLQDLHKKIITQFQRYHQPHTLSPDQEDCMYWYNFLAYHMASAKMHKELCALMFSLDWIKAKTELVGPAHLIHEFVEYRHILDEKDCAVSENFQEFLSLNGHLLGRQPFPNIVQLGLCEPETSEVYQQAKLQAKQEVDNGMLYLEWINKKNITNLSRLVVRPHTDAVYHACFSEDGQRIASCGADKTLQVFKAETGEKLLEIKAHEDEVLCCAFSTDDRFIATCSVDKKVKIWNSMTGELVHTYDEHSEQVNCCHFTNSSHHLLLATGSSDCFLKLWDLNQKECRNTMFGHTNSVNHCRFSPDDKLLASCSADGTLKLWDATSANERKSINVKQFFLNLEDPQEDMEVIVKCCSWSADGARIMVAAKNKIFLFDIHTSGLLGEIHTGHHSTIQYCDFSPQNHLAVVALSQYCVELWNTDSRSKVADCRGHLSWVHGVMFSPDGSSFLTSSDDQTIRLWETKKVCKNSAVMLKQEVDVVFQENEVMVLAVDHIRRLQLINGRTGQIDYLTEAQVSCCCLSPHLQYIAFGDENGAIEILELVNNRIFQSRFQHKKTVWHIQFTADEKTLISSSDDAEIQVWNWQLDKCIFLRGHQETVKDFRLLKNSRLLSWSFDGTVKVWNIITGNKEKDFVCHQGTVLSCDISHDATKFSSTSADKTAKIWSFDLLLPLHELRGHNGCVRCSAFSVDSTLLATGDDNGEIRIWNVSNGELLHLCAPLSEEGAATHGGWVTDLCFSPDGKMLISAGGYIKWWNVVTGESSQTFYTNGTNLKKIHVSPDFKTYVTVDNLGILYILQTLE
Format: functional.

A further assay deals with T4, Protein RecA (Mycobacterium tuberculosis, UniProt P9WHJ3).
T4 sequence (P9WHJ3 whole entry): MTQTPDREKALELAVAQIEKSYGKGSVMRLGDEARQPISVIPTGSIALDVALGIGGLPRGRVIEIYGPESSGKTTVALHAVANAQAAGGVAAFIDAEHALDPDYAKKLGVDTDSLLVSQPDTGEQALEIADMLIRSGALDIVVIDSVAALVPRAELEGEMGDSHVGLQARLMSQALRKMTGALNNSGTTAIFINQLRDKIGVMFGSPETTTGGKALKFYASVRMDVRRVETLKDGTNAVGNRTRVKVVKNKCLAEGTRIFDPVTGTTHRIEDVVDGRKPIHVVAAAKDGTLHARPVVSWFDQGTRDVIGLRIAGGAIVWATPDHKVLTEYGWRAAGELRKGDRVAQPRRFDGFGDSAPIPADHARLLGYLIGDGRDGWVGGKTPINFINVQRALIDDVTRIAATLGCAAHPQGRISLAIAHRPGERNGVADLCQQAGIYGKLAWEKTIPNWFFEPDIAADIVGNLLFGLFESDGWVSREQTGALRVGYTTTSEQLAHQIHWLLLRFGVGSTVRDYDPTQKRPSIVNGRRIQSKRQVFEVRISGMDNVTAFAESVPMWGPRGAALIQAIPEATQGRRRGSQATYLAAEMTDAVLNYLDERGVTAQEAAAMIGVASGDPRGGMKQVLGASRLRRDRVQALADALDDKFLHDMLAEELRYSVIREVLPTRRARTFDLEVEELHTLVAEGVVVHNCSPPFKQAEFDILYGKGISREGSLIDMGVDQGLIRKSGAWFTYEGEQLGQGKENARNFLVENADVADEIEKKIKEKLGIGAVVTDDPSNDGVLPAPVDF
Briefly: Fluorescence Cell-Free Homogeneous Dose Retest to Identify Inhibitors of RecA-Intein Splicing Activity. [Related pubchem assays (depositor defined):AID2097, AID2223, AID489010, AID492950]. In kind it is functional.

The test system of another assay is P388/ADR. Briefly: cells. Format: functional. Particulars: Mus musculus.
For another assay, the system named is SN12K1. Briefly: cells. In kind it is functional. Particulars: Homo sapiens.
In a further assay the test system is P388. In words: cells. Format: functional. Particulars: Mus musculus.
Assay [13] deals with T5, Heat shock factor protein 1 (Mus musculus, UniProt P38532).
T5 sequence (P38532 whole entry): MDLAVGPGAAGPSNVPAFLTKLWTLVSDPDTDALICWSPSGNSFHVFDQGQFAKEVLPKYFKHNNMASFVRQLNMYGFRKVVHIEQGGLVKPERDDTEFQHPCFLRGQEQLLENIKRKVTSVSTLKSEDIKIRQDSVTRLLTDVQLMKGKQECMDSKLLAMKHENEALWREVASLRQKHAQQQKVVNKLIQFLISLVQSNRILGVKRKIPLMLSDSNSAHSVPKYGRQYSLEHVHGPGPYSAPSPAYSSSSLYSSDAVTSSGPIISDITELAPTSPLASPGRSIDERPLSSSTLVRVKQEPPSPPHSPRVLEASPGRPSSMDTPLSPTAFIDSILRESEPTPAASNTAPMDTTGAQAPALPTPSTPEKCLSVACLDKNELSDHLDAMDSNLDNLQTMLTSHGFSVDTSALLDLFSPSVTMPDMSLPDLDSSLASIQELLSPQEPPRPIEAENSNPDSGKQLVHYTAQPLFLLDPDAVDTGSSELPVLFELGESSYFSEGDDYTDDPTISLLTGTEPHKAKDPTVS
In words: enhancement of HSF1-driven luciferase signal – cell-based, NIH3T3, luminescence, dose retest, confirmation (AID 435004).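 Also: stress induced by proteasome inhibitor MG132 added 30 min after compound; luciferase reporter driven by HSF1 response element in NIH3T3 cells; actives raise luminescence as potentiators of the MG132 stress response.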 In kind it is functional.

Assay [14] has as its target Disintegrin and metalloproteinase domain-containing protein 17 (Homo sapiens, UniProt P78536). In words: exosite inhibitors of ADAM17, dose response, biochemical (AID 743260).
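For IC50 Mean in this document: confirmatory dose-response retesting of NadD inhibitor hits first found in an ultra-high-throughput screen.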

T1 sequence (P65502 whole entry): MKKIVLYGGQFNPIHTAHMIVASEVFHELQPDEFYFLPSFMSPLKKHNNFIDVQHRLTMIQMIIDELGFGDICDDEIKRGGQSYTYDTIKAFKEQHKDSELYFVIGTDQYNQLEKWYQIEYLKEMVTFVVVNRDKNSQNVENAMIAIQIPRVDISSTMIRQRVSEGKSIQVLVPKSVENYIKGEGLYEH
Disintegrin and metalloproteinase domain-containing protein 17, sequence (P78536 whole entry, the tested form may be a part): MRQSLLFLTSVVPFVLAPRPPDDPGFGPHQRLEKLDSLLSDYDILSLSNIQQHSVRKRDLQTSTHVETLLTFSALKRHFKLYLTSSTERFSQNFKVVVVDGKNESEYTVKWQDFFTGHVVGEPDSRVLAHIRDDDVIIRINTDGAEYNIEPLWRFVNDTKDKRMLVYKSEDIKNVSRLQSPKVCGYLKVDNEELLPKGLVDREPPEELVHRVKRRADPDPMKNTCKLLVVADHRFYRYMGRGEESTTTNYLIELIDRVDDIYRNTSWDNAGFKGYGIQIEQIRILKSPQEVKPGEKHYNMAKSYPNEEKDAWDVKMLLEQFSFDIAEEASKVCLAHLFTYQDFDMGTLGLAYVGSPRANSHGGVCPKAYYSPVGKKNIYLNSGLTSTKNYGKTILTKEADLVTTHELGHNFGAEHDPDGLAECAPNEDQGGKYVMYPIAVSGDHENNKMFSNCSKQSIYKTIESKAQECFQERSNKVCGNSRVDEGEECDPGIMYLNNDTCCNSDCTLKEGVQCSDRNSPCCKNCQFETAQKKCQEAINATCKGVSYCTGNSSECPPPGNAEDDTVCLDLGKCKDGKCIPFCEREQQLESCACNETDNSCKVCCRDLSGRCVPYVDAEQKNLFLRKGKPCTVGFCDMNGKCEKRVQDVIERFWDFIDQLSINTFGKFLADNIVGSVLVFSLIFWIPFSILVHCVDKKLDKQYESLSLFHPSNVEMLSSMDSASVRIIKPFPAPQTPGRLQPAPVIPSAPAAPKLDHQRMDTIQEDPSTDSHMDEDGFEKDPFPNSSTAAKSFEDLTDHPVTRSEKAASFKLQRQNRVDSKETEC
Glucose-6-phosphate 1-dehydrogenase, sequence (P11413 whole entry): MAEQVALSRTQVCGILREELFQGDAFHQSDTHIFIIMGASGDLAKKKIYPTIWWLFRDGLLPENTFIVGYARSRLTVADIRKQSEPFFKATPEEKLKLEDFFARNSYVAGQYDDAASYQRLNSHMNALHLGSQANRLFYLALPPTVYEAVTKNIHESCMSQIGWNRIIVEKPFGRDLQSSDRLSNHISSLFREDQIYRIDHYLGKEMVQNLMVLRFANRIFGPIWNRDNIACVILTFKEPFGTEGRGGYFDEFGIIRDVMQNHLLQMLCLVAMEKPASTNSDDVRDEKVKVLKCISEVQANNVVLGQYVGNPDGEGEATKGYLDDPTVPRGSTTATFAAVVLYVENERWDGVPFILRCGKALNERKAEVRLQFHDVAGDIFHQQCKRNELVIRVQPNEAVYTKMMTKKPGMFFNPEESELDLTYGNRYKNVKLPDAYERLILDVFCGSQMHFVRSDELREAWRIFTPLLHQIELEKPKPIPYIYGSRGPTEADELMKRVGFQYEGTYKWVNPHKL

As to `Cn1c(SCC(=O)N2c3ccccc3CCc3ccccc32)nnc1-c1cc2ccccc2cc1O`, the half-maximal cytotoxic concentration (CC50) – broadly, the concentration giving 50% cytotoxicity – in [1] was > 50 µM (active). The IC50 against Prothrombin was > 50 µM (not active); in assay [2], 7.15 µM (active); in [3], 24.5 µM (active).
As to `Cc1csc(SCC(=O)NCc2ccccc2Cl)n1`, at Prothrombin, the IC50 is recorded as > 50 µM (not active).
As for `Cc1ccc(C(=O)Nc2ccc3c(c2)OCCO3)c(Cl)c1`, the concentration for a half-maximal effect (EC50) (usually the concentration giving half of the maximal effect) was 6.61 µM (inconclusive) in assay [4], 5.14 µM (active) in assay [5] and 3.89 µM (active) in assay [6]. Also, the AC50 (usually the concentration at which the activity in the assay is half-maximal) was 1.27 µM (active) in the assay on HEK293, 3.65 µM (active) in assay [7], 3.76 µM (active) in assay [8] and > 52 µM (inactive) in [9].
Turning to `COc1ccc(OCC(=O)Nc2cccc3ncccc23)cc1`, the IC50 against Prothrombin is > 50 µM (not active).
In the case of `CC(=O)Nc1ccc(S(=O)(=O)[N-]C2=C(n3cc[n+](-c4ccccn4)c3)C(=O)c3ccccc3C2=O)cc1`, the values for the IC50 in [10] and in assay [12] were > 80 µM (inactive) and 6.71 µM (active), respectively. Besides, the AC50 in [11] is 3.92 µM (active). Further, the EC50 at Protein RecA was 3.46 µM (active).
With `CCCNC1=C(C)C(=O)C2=C(C1=O)[C@H](COC(N)=O)[C@]1(OC)[C@@H]3N[C@@H]3CN21`, the GI50 (as a rule, the concentration at which growth is held to half of that of the control) in the assay with P388/ADR is 4.66 µM (inactive); in the assay with SN12K1, 4.36 µM (inactive); in the assay with P388, 0.32 µM (active).
The like results for `Cc1ccc(C(C)(C)C[P+](C)(c2ccccc2)c2ccccc2)cc1` were, in that order, > 100 µM (inactive), 6.49 µM (inactive) and 0.508 µM (active).
Consider `COc1ccc2c(c1)c1c(C)c3cnccc3c(C)c1n2CCCN`, for which the 50% growth inhibitory concentration (GI50) in the assay with P388/ADR was 0.185 µM (active); with SN12K1, 0.102 µM (active); in the assay on P388, 0.0505 µM (active).
The like results for `CC(=O)Nc1cccc(/N=N/N(C)C)c1` were, in that order, > 100 µM (inactive), > 57.5 µM (inactive) and > 100 µM (inactive).
Consider `CCCC(O)C(NC(=O)CCl)C(=O)O` (configuration not stated), for which the GI50 in the assay with P388/ADR, in the assay on SN12K1 and in the assay on P388 was > 100 µM (inactive) each time.
For the compound `CSCCC(NC(=O)C(Cc1ccccc1)NC(=O)CNC(=O)CNC(=O)C(N)Cc1ccc(O)cc1)C(=O)O` (configuration not stated), the GI50 in the assay on P388/ADR, with SN12K1 and in the assay with P388 was > 100 µM (inactive) throughout.
As for `COC(=O)c1cccc(Cn2c(Cl)c(/C=N/Nc3ccccc3C)sc2=O)c1`, in [13], the EC50 was 61.2 µM (active). The IC50 in assay [14] was > 69.5 µM (inactive).
